According to US20200352880A1 (priority 2019, published 2020):

Key:
α7nAChR and S100A9 = experiment: immunofluorescence of α7nAChR and S100A9 in PMNs incubated with E44; format: cell-based; conditions: PMNs with bacteria (E44), compared to bacteria groups
Experimental: The next step is to further examine whether alpha7 nicotinic acetylcholine receptor (α7nAChR) is associated with antimicrobial protein S100A9 during the process of phagocytizing E44 by PMNs. […] Next, an immunofluorescence staining test is performed on the samples as follows: a primary antibody is added to incubate with α7nAChR and S100A9 overnight at 4° C., and then the corresponding FITC and PE-conjugated secondary antibodies are added to incubate for 1 hour at room temperature, after mounting the samples on microscope slides with DAPI sealing, positioning and expression of α7nAChR and S100A9 are observed under a fluorescence microscope. Compared to the control group, S100A9 (red) is redistributed to the cell edge and area around the nucleus (FIG. 6) after infected with E44, it is observed that α7nAChR (green) and S100A9 (red) are located in the same position with presenting of colocalization, and the expression of both is elevated, α7nAChR (green) and S100A9 (red) also appear to have a high degree of colocalization(R close to 1) after ImageJ software analysis.

E44 [1] = experiment: killing, NET trapping and phagocytosis of E44 by neutrophils; format: cell-based, E. coli
Experimental: (§1) The bactericidal functions of neutrophils include phagocytosis and NET-mediated killing. […] Experiments are performed according to the procedures described in Reference 2. […] The bacteria are collected and spread over Brain Heart Infusion (BHI) agar plates containing rifampin and allowed to culture for 12-16 hours, then the number of bacterial colonies of each sample is counted. […] After 1-hour incubation, the samples are centrifuged, collected, and mounted on microscope slides, which are sealed after DAPI staining, then phagocytosis of PMNs is observed and phagocytized particles are counted under a fluorescence microscope. […] However, early phagocytosis is not accompanied by a significant change in PMN structure when MOI<50. When MOI>50, each PMN on average includes at least 50 E44, a significant nuclear morphological change occurs.

E44 [2] = experiment: spread of E44 in infected mice (bacterial counts in blood, livers, lungs, spleens); format: in vivo, C57 mice; conditions: MEM 5-10 μg/g body weight intraperitoneally, 24 hours
Experimental: After 24 hours of E44 infection, the mice are dissected to obtain blood, livers, lungs, and spleens under aseptic condition. The obtained blood, after performing an appropriate serial dilution, is spread over BHI (containing rifampin) agar plates. The obtained livers, lungs, and spleens are precisely weighed, added with pre-cooled sterile PBS in a ratio of 0.1 g/ml, and fully homogenized. The homogenates, after performing an appropriate serial dilution, are spread over BHI (containing rifampin) agar plates.
After confirming that MEM may enhance NET formation in bacteria-infected mice, whether MEM may block the spread of bacteria in mice is discussed. […] After 24 hours of bacterial infection, the mice are dissected to obtain blood, livers, lungs, and spleens under aseptic condition for bacterial count determination.

neutrophils [3] = experiment: E44-induced NET formation: DNA release (PicoGreen) and neutrophil elastase (NETosis Assay Kit) from neutrophils; format: cell-based; conditions: concentration-dependent
Text: (§2) Since DNA is a major component of NETs, NET formation is first examined by determining the amount of DNA released from neutrophils. […] Methods are described in Reference 1.
The methods of neutrophil isolation and preparation are similar to those described previously, and the amount of NE is detected by following kit instructions.

PMNs = experiment: immunofluorescence of MPO, S100A9 and DNA in PMNs (NET formation); format: cell-based; conditions: PMA groups and E44 groups treated with MEM
α7nAChR = α7nAChR (Homo sapiens, UniProt P36544); conditions: cited from earlier work
E44 [4] = experiment: killing of E44 by phagocytosis in dHL60 cells after CHRNA7 siRNA silencing; format: cell-based, E. coli; conditions: MEM dose up to 50 μM
Experimental: FIGS. 5A, 5B, 5C, and 5D illustrate the influence on phagocytosis by PMNs after gene silencing of CHRNA7 and S100A9. 2×10^6/ml HL60 cells are treated with 1.3% DMSO for cell stimulation and induction, and cell morphology is observed under an inverted microscope after 4-5 days. Compared to the control group, the cell volume gradually enlarges, granulocyte nuclear shapes such as kidney-shaped (banded) nucleus, segmented (multi-lobed) nucleus, bean-shaped nucleus appear after 48 hours and gradually increase over time. Cell status of each experimental group is identified using Typan Blue Exclusion Test and Wright-Giemsa Stain Method to meet the requirements for cell quality in follow-up studies. Differentiated neutrophils are added with CHRNA7 and S100A9siRNA, respectively, and treated with lipofectamine 2000 in 24-well plates, a supplemental complete cell culture medium is added after 6 hours to incubate for 48 hours, and the expression of CHRNA7 and S100A9 in differentiated HL60 (dHL60) cells is examined. Control siRNA acts as the control group, and GAPDH represents the housekeeping gene.
Samples are prepared by the dHL60 cells and E44 in a ratio of 1:5 and allowed to interact for 1 hour.

mouse BMECs = experiment: gene expression profile of E44-infected BMECs by Next Generation Sequencing; format: cell-based; conditions: E44 infection 0.5 hours
Experimental: After the mouse BMECs are infected with E44 for 0.5 hours, the cells are collected to extract RNA, which is sent to Hua-Da Company (China) for Next Generation Sequencing analysis.
After the mouse BMECs are infected with E44 for 0.5 hours, the cells are collected to extract RNA, which is sent to Hua-Da Company (China) to analyze alterations on gene expression profile using Next Generation Sequencing and look for differentially expressed genes, a total of 978 differentially expressed genes are found.

E44 [5] = experiment: NET formation in E44-infected mice (serum free DNA and NE); format: in vivo, C57 mice; conditions: MEM 5-10 μg/g body weight intraperitoneally, 24 hours
Experimental: After 24 hours, serum is obtained from blood samples collected from hearts, and the amounts of free DNA and neutrophil elastase (NE) in the serum of each mouse are determined using PicoGreen and Mouse PMN Elastase ELISA Kit (R&D Systems) respectively.

MRSA = experiment: killing of MRSA by neutrophils; format: cell-based, methicillin-resistant Staphylococcus aureus; conditions: increased concentration of MEM (1-25 μM); concentration-dependent
Experimental: as §1
(§3) Experimental procedures of MEM enhancing NET formation and facilitating killing of MRSA by neutrophils are the same as described previously.

neutrophils [6] = experiment: MRSA-induced NET formation (release of neutrophil DNA); format: cell-based
Text: as §2, §3

cBMECs = experiment: number of circulating brain microvascular endothelial cells (cBMECs) in blood; conditions: in vivo
Experimental: The protocol is prepared as follows:
According to manufacturer's instructions, Dynabeads M-450 solution with a final concentration of 4×10^8 beads/ml is prepared by Hank's Balanced Salt Solution. BMECs in brain tissues and blood are isolated using UEA I. The BMECs from the brain tissues are cultured with RPMI-1640 medium containing 10% fetal bovine serum and identified using CD146 and Mfsd2a antibodies.

α7nAChR, sequence (P36544 23-502): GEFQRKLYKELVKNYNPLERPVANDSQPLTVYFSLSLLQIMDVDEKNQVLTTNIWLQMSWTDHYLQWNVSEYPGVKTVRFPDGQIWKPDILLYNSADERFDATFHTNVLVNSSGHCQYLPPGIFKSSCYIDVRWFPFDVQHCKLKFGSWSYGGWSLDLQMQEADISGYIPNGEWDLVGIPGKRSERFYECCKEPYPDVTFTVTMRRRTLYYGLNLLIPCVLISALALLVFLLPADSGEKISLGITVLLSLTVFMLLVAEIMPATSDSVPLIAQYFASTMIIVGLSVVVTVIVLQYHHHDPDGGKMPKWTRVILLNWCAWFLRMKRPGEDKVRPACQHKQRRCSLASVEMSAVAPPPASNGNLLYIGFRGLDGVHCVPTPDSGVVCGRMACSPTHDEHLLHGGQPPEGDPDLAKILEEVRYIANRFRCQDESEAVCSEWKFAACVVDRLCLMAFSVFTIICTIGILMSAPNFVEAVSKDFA

C[C@]12C[C@@H]3C[C@](C)(C1)C[C@@](N)(C3)C2.Cl [MEM, 3,5-Dimethyl-1-aminoadamantane hydrochloride]
degree of colocalization of α7nAChR and S100A9 (α7nAChR and S100A9): remarkably reduced | expression of α7nAChR and S100A9 (α7nAChR and S100A9): significantly decreased | phagocytosis of E44 by PMNs (E44 [1]; 50 μM MEM, E44 MOI=1, 5, 50, 100, 1-hour incubation, versus E44 groups): more E44 are phagocytized | NETs trapping of E44 (E44 [1]; DNase used to dissolve DNA): concentration-dependently enhance | killing of E44 by neutrophils, including phagocytosis and NET-mediated killing (E44 [1]; E44 MOI=10, MEM 0, 10, 20, 50 μM, 2 hours, with or without Cytochalasin D): concentration-dependently enhance | spread of bacteria (E44) in mice (E44 [2]): significantly block | release of DNA from neutrophils under the effect of E44 (neutrophils [3]; E44 MOI=10, different concentrations of MEM, 4 hours): significantly enhanced | production of neutrophil elastase (NE) under the effect of E44 (neutrophils [3]; E44 with addition of MEM): significantly increased | MPO, S100A9 and DNA formation (NET formation) (PMNs): a large number of MPO (green), S100A9 (red), and DNA (blue) are formed | inhibitory effect on α7nAChR compared with inhibitory effect on NMDAR (α7nAChR): stronger | effect of MEM on phagocytizing bacteria by PMNs after CHRNA7 down-regulation (E44 [4]): not obvious | E44-induced alterations on gene expression (mouse BMECs): reverse | anti-inflammatory genes IL-33, IL-18rap, MMP10, Irs1 expression (mouse BMECs): significantly up-regulate | pro-inflammatory genes A20, CISH, Ptgds, ZEP36 expression (mouse BMECs): down-regulate | NE in the blood (serum) of E44-infected mice (E44 [5]): significantly enhance | free DNA in the blood (serum) of E44-infected mice (E44 [5]): significantly enhance | survival rate of MRSA (MRSA): gradually decreases | release of neutrophil DNA under the effect of MRSA (neutrophils [6]): significantly enhance | number of cBMECs in blood (cBMECs): reduce
